# Assay results published in ChEMBL document CHEMBL5214989, “Overcoming Preclinical Safety Obstacles to Discover (S)-N-((1,2,3,5,6,7-Hexahydro-s-indacen-4-yl)carbamoyl)-6-(methylamino)-6,7-dihydro-5H-pyrazolo[5,1-b][1,3]oxazine-3-sulfonamide (GDC-2394): A Potent and Selective NLRP3 Inhibitor” (J Med Chem, 2022).
# pIC50: −log10 of the molar value. Activity calls are given as the source filed them. The rule behind the calls is not given here.
# Assays:
# [1] = Plasma protein binding in human relative to control; format: ADME, cell-free; conditions: read-out: PPB (converted)
# [2] = Renal toxicity in cynomolgus monkey assessed as minimal thymic lymphoid depletion at >= 300 mg/kg/day measured for 14 days; format: organism-based, Macaca fascicularis; conditions: in vivo, 336 h, time 14 day
# [3] = Volume of distribution at steady state in Sprague-Dawley rat at 1 mg/kg, po or 1 mg/kg, iv measured upto 24 hrs by LC-MS/MS analysis; format: ADME, organism-based; conditions: in vivo
# [4] = Plasma protein binding in rat relative to control; format: ADME, cell-free; conditions: read-out: PPB (converted)
# [5] = Volume of distribution at steady state in Beagle dog at 1 mg/kg, po or 1 mg/kg, iv measured upto 24 hrs by LC-MS/MS analysis; format: ADME, organism-based, Canis lupus familiaris; conditions: in vivo
# [6] = Apparent permeability across apical to basolateral side in dog MDCK cells; format: ADME, cell-based, Canis lupus familiaris
# [7] = Oral bioavailability in Beagle dog at 1 mg/kg measured upto 24 hrs by LC-MS/MS analysis; format: ADME, organism-based, Canis lupus familiaris; conditions: in vivo
# [8] = Oral bioavailability in Sprague-Dawley rat at 1 mg/kg measured upto 24 hrs by LC-MS/MS analysis; format: ADME, organism-based; conditions: in vivo
# [9] = Oral bioavailability in CD-1 mouse at 1 mg/kg measured upto 24 hrs by LC-MS/MS analysis; format: ADME, organism-based; conditions: in vivo
# [10] = Volume of distribution at steady state in cynomolgus monkey at 1 mg/kg, po or 1 mg/kg, iv measured upto 24 hrs by LC-MS/MS analysis; format: ADME, organism-based, Macaca fascicularis; conditions: in vivo
# [11] = Solubility of compound at pH 1.50 to 7.50 by RP-HPLC analysis; format: physicochemical; conditions: buffer, pH 1.5
# [12] = Half life in Beagle dog at 1 mg/kg, iv measured upto 24 hrs by LC-MS/MS analysis; format: ADME, organism-based, Canis lupus familiaris; conditions: in vivo
# [13] = Plasma protein binding in mouse relative to control; format: ADME, cell-free; conditions: read-out: PPB (converted)
# [14] = Kinetic solubility of compound; format: physicochemical; conditions: read-out: Kinetic_solubility
# [15] = Half life in CD-1 mouse at 1 mg/kg, iv measured upto 24 hrs by LC-MS/MS analysis; format: ADME, organism-based; conditions: in vivo
# [16] = Half life in cynomolgus monkey at 1 mg/kg, iv measured upto 24 hrs by LC-MS/MS analysis; format: ADME, organism-based, Macaca fascicularis; conditions: in vivo
# [17] = Volume of distribution at steady state in CD-1 mouse at 1 mg/kg, po or 1 mg/kg, iv measured upto 24 hrs by LC-MS/MS analysis; format: ADME, organism-based; conditions: in vivo
# [18] = Plasma protein binding in cynomolgus monkey relative to control; format: ADME, cell-free, Macaca fascicularis; conditions: read-out: PPB (converted)
# hERG (KCNH2) [19] = target: T1, hERG (KCNH2) (Homo sapiens, UniProt Q12809); experiment: Inhibition of hERG at 10 uM relative to control; format: toxicity
# [20] = Hepatic toxicity in cynomolgus monkey upto 500 mg/kg/day measured for 14 days; format: organism-based, Macaca fascicularis; conditions: in vivo, 336 h, time 14 day
# [21] = Renal toxicity in cynomolgus monkey upto 500 mg/kg/day measured for 14 days; format: organism-based, Macaca fascicularis; conditions: in vivo, 336 h, time 14 day
# [22] = Plasma protein binding in dog relative to control; format: ADME, cell-free, Canis lupus familiaris; conditions: read-out: PPB (converted)
# [23] = Half life in Sprague-Dawley rat at 1 mg/kg, iv measured upto 24 hrs by LC-MS/MS analysis; format: ADME, organism-based; conditions: in vivo
# hERG (KCNH2) [24] = target: T1, hERG (KCNH2); experiment: Inhibition of hERG at 1 uM relative to control; format: toxicity
# [25] = Oral bioavailability in cynomolgus monkey at 1 mg/kg measured upto 24 hrs by LC-MS/MS analysis; format: ADME, organism-based, Macaca fascicularis; conditions: in vivo
# Rattus norvegicus = experiment: Anti-allodynic activity in MSU-induced Wistar rat gouty arthritis model assessed as mechanical allodynia at 50 mg/kg, iv administered once daily for 7 days and measured on day 2; format: functional, organism-based; conditions: time 7.0 day
# [26] = Cytotoxicity against human hepatocyte; format: toxicity, cell-based; conditions: hepatocytes
# [27] = Renal toxicity in cynomolgus monkey assessed as retrograde nephropathy at 100 to 300 mg/kg/day for 14 days; format: organism-based, Macaca fascicularis; conditions: in vivo, 336 h, dose 100-300 mg/kg/day, time 14 day
# [28] = Renal toxicity in cynomolgus monkey assessed as increase in kidney weight at 100 to 300 mg/kg/day for 14 days; format: organism-based, Macaca fascicularis; conditions: in vivo, 336 h, dose 100-300 mg/kg/day, time 14 day
# [29] = Renal toxicity in cynomolgus monkey at 100 mg/kg/day for 14 days; format: organism-based, Macaca fascicularis; conditions: in vivo, 336 h, time 14 day
# [30] = Renal toxicity in cynomolgus monkey assessed as increase in blood urea nitrogen at 100 to 300 mg/kg/day for 14 days; format: organism-based, Macaca fascicularis; conditions: in vivo, 336 h, dose 100-300 mg/kg/day, time 14 day
# T1 sequence (Q12809 whole entry): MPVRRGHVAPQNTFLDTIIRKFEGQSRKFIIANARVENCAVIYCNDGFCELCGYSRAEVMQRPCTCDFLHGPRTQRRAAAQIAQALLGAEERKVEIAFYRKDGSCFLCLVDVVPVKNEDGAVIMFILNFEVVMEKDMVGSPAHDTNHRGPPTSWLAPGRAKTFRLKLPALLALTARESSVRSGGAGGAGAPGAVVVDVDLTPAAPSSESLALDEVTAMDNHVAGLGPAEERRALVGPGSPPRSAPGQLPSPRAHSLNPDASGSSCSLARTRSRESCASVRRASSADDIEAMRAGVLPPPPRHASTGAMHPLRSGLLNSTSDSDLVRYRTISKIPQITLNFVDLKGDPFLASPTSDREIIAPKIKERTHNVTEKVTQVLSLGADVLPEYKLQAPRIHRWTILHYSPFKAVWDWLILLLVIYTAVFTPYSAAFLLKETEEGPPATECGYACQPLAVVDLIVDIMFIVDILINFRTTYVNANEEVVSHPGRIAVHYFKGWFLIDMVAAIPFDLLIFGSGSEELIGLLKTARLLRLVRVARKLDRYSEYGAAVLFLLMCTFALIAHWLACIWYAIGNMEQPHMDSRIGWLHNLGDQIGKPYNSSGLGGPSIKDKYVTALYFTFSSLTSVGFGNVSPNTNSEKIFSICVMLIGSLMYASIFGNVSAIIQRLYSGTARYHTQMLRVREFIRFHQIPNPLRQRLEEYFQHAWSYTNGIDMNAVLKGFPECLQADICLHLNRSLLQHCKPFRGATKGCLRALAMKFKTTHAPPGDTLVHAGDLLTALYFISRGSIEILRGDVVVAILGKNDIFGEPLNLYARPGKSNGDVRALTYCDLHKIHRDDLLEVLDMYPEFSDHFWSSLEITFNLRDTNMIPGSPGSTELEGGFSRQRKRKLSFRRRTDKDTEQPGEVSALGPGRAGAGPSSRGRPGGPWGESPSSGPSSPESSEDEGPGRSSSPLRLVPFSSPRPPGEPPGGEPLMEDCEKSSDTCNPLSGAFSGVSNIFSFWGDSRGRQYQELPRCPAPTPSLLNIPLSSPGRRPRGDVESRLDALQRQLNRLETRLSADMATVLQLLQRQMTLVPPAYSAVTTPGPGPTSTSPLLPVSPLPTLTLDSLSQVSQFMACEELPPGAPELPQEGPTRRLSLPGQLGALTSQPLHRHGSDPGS
compound,measurement,setting,value
CN[C@@H]1COc2c(S(=O)(=O)NC(=O)Nc3c4c(cc5c3CCC5)CCC4)cnn2C1,fraction unbound,[1],0.044
same,Activity,[2],Non-Toxic
same,Vdss,[3],0.29 L/kg
same,fraction unbound,[4],0.07
same,Vdss,[5],0.67 L/kg
same,Papp A→B,[6],0.077 ×10⁻⁶ cm/s
same,bioavailability,[7],78%
same,bioavailability,[8],33%
same,bioavailability,[9],80%
same,Vdss,[10],0.18 L/kg
same,solubility,[11],Soluble
same,half-life,[12],0.99 h
same,fraction unbound,[13],0.024
same,solubility kinetic at 24 h,[14],105 µM
same,half-life,[15],1.2 h
same,half-life,[16],0.89 h
same,Vdss,[17],0.72 L/kg
same,fraction unbound,[18],0.082
same,inhibition at 10 µM,hERG (KCNH2) [19],0.2%
same,Activity,[20],Non-Toxic
same,Activity,[21],Non-Toxic
same,fraction unbound,[22],0.114
same,half-life,[23],4.4 h
same,inhibition at 1 µM,hERG (KCNH2) [24],-3.1%
same,bioavailability,[25],53%
C=CC1=C(C(=O)O)N2C(=O)[C@@H](NC(=O)/C(=N\OCOC(=O)C(C)(C)C)c3csc(N)n3)C2SC1 (stereo partly drawn),Activity,Rattus norvegicus,Active
O=C(Nc1c2c(cc3c1CCC3)CCC2)NS(=O)(=O)c1cnn2c1OCCC2 [JT-001],fraction unbound,[1],0.014
same,Vdss,[3],0.2 L/kg
same,fraction unbound,[4],0.014
same,Vdss,[5],0.2 L/kg
same,Papp A→B,[6],1.8 ×10⁻⁶ cm/s
same,bioavailability,[7],28%
same,bioavailability,[8],30%
same,bioavailability,[9],18%
same,pIC50,[26],< 4.00
same,Activity,[27],Toxic
same,Vdss,[10],0.08 L/kg
same,solubility,[11],Soluble
same,half-life,[12],2.9 h
same,fraction unbound,[13],0.009
same,solubility kinetic at 24 h,[14],102 µM
same,half-life,[15],1.9 h
same,half-life,[16],1.4 h
same,Activity,[28],Toxic
same,Vdss,[17],0.2 L/kg
same,fraction unbound,[18],0.04
same,inhibition at 10 µM,hERG (KCNH2) [19],9.7%
same,Activity,[29],Toxic
same,fraction unbound,[22],0.045
same,half-life,[23],1.1 h
same,Activity,[30],Toxic
same,inhibition at 1 µM,hERG (KCNH2) [24],4.1%
same,bioavailability,[25],17%
